Each structure is given as a SMILES string. Where two headings read alike, the source gives them in different places.

A short description of data set [1]: In vivo delivery of salmon calcitonin using iontophoresis in combination with microporation using titanium needle arrays. Further details: species or system hairless rat. Particulars: titanium needle array microporation in combination with iontophoresis; 0.5 minutes after administration; FIG. 1C.
The nature of data set [2]: In vivo iontophoretic delivery of salmon calcitonin across skin microporated with maltose microneedles, serum SCT by ELISA. Further details: species or system hairless rat. Particulars: for increase in concentration compared to delivery with microneedles alone: p<0.05; for increase in concentration compared to delivery with microneedles alone / Cmax / total amount of SCT delivered: hairless rat; for Cmax: hairless, rat, serum, topical or ocular, 350 µg, read-out: maximum concentration of SCT in the serum; for total amount of SCT delivered: calculated by WinNonlin. On the procedure:
• Purpose: To determine the effect of iontophoresis and its combination with microneedles on the in vivo delivery of salmon calcitonin (SCT) as a model peptide. • Methods: Microneedles, iontophoresis and the combination were investigated for their effect on the transdermal delivery of SCT in vivo using the hairless rat. SCT (350 μl of a 1 mg/ml solution in 50 mM citrate buffer, pH 4.0) was placed in a cartridge designed for iontophoresis. Maltose microneedles (500 micron, Texmac Inc.), stacked in three layers, were used to porate the skin prior to the application of the drug with or without iontophoresis. […] Transport of drug across the skin was assessed by collecting blood samples at regular intervals via the tail vein which were analyzed for serum SCT using ELISA. • Results: The maximum concentrations of SCT in the serum were 41.45 pg/ml, 605.21 pg/ml, and 2374.06 pg/ml under microneedles alone, 1 hr iontophoresis alone, and the combination, respectively. When compared to the delivery with microneedles alone, the increase in concentration with iontophoresis alone was 15-fold (p<0.05) and with the combination of microneedles the increase was 57-fold (p<0.05). The total amount of SCT delivered by iontophoresis and its combination with microneedles in the hairless rat was 648.67 ng/kg and 3075.96 ng/kg, respectively, as calculated by WinNonlin. • Conclusion: Iontophoresis or a disruption of the skin barrier by microneedles enabled the transdermal delivery of SCT.

Turning to `CC(C)C[C@H](NC(=O)[C@H](CCCCN)NC(=O)CNC(=O)[C@H](CC(C)C)NC(=O)[C@@H](NC(=O)[C@@H]1CSSC[C@H](N)C(=O)N[C@@H](CO)C(=O)N[C@@H](CC(N)=O)C(=O)N[C@@H](CC(C)C)C(=O)N[C@@H](CO)C(=O)N[C@@H]([C@@H](C)O)C(=O)N1)C(C)C)C(=O)N[C@@H](CO)C(=O)N[C@@H](CCC(N)=O)C(=O)N[C@@H](CCC(=O)O)C(=O)N[C@@H](CC(C)C)C(=O)N[C@@H](Cc1c[nH]cn1)C(=O)N[C@@H](CCCCN)C(=O)N[C@@H](CC(C)C)C(=O)N[C@@H](CCC(N)=O)C(=O)N[C@H](C(=O)N[C@@H](Cc1ccc(O)cc1)C(=O)N1CCC[C@H]1C(=O)N[C@@H](CCCNC(=N)N)C(=O)N[C@H](C(=O)N[C@@H](CC(N)=O)C(=O)N[C@H](C(=O)NCC(=O)N[C@@H](CO)C(=O)NCC(=O)N[C@H](C(=O)N1CCC[C@H]1C(N)=O)[C@@H](C)O)[C@@H](C)O)[C@@H](C)O)[C@@H](C)O` [SCT, salmon calcitonin], in data set [1], the “plasma concentration of SCT relative to microporation or iontophoresis alone” value is given as “about 10 fold”. The “increase in concentration compared to delivery with microneedles alone” value in data set [2] (combination of iontophoresis and microneedles vs microneedles alone) was determined as 57 fold; in data set [2] (iontophoresis alone vs microneedles alone) it was 15 fold. For the same compound, the Cmax in data set [2] (pH 4, transdermal, 1 hr iontophoresis alone (0.2 mA/cm^2), 350 μl of 1 mg/ml SCT, pH 4.0) was found to be 0.605 ng/mL; in data set [2] (pH 4, transdermal, maltose microneedles alone, 350 μl of 1 mg/ml SCT in 50 mM citrate buffer pH 4.0), 0.0415 ng/mL; in data set [2] (transdermal, combination of maltose microneedles and 1 hr iontophoresis (0.2 mA/cm^2)), 2.37 ng/mL. In addition, the “total amount of SCT delivered” value is reported as 648.67 ng/kg in data set [2] (iontophoresis alone) and 3075.96 ng/kg in data set [2] (iontophoresis in combination with microneedles). Besides, the “increase in amount of protein that permeated the skin compared to iontophoresis alone” value in data set [2] (microneedle treatment combined with iontophoresis vs iontophoresis alone, hairless rat model) is “about four”.

(Values after patent US20090082713A1, “METHOD OF ENHANCING IONTOPHORETIC DELIVERY OF A PEPTIDE” (priority 2007, published 2009).)
